In patent US11180452B2, “Methods and compositions for selectively inhibiting pathogenic microbes” (priority 2019, dated 2021):
Converted amounts (≈) assume the structure as drawn. Like-named read-outs stand apart in the source and are kept apart here.

Experiments:
[1] = test system: HepG2 cells; assay: SYTOX assay on HepG2 cells; format: cell-based; conditions: staining in treated cells
[2] = test system: Candida glabrata; assay: Candida glabrata MIC / MFC; format: cell-based; conditions: Nakaseomyces glabratus; for MFC: read-out: MFC; for MIC: read-out: MIC
[3] = test system: C. albicans; assay: Candida albicans MIC / MFC; format: cell-based
[4] = test system: Francisella tularensis subsp. Holarctica Strain LVSR NR-597; assay: microbe, parasite or virus in culture; format: cell-based
[5] = HepaRG cytotoxicity, MTT assay EC50; format: cell-based, human; conditions: human, NoSpin HepaRG cells
Protocol: (§1) Additionally, the antimicrobial compounds were analyzed for cytotoxicity. […] We utilized the standard MTT assay (Promega CellTiter 96) and GraphPad Prism 7 software to determine EC50 values for each analogue. Briefly, 20,000 HepG2 cells in 200 μl of the ATCC recommended media were seeded in each well of a 96-well plate with a moisture barrier created in the outermost wells. The cells were allowed to attach overnight at 37° C., and then observed under phase contrast microscopy for proper morphological characteristics. […] Once incubations were complete, the spectrophotometric absorbance of the samples was measured at a wavelength of 595 nm. […] For the HepaRG assay, NoSpin HepaRG™ cells (Lonza, cat #NSHPRG) were thawed and plated with 20,000 cells per well. They were allowed to attach for 4 h (optimal DME profile per Lonza's testing) before dosing following the identical protocol as above.

[6] = test system: NoSpin HepaRG cells; assay: HepaRG cytotoxicity, MTT assay EC50; format: cell-based, human; conditions: Homo sapiens, HepaRG; cytotoxicity EC50, Table 9
Protocol: as §1

[7] = test system: Roseomonas mucosa (RM); assay: MIC against skin commensal Roseomonas mucosa; format: cell-based; conditions: read-out: Skin Commensals MIC Roseomonas mucosa (RM)
[8] = test system: N. gonorrhoeae; assay: N. gonorrhoeae MIC; format: cell-based; conditions: Neisseria gonorrhoeae
[9] = test system: Francisella tularensis strains; assay: microbe, parasite or virus in culture; format: cell-based
[10] = test system: Trichophyton rubrum; assay: MIC against Trichophyton rubrum; format: cell-based
[11] = test system: Staphylococcus epidermidis (SE); assay: MIC against skin commensal Staphylococcus epidermidis; format: cell-based; conditions: read-out: Skin Commensals MIC Staphylococcus epidermidis (SE)
[12] = test system: Burkholderia thailandensis Brett et al ATCC: 700388; assay: microbe, parasite or virus in culture; format: cell-based
[13] = test system: Bacillus thuringiensis; format: cell-based; conditions: for MIC: Bacillus thuringiensis
[14] = test system: Staphylococcus aureus (SA); assay: MIC against pathogen Staphylococcus aureus (Table 1); format: cell-based; conditions: read-out: Pathogens MIC Staphylococcus aureus (SA)
[15] = test system: Bacillus subtilis; assay: Bacillus subtilis MIC / MBC; format: cell-based; conditions: for MBC: Bacillus subtilis NRRL: B-571, minimum bactericidal concentration; for MIC: Bacillus subtilis
[16] = MIC with and without 2-ketobutyrate (synergy); format: cell-based
[17] = test system: cell wall synthesis of S. aureus; assay: Macromolecular synthesis assay, glucosamine incorporation into cell wall; format: cell-based; conditions: dose-response, FIG. 2A-2B
[18] = C. glabrata strain #584 (Table 7)
[19] = Candida glabrata #584 (Table 2)
[20] = C. albicans strain #761, read-out: MFC
[21] = C. albicans strain #761, read-out: MIC
[22] = C. albicans strain #762, read-out: MFC
[23] = C. albicans strain #762, read-out: MIC
[24] = read-out: F. tularensis BSL-3 MIC, Strain 100
[25] = read-out: F. tularensis BSL-3 MIC, strain HN-63
[26] = read-out: F. tularensis BSL-3 MIC, strain LVS
[27] = read-out: F. tularensis BSL-3 MIC, strain MA00-2987
[28] = read-out: F. tularensis BSL-3 MIC, strain MO #1
[29] = read-out: F. tularensis BSL-3 MIC, strain MO #2
[30] = read-out: F. tularensis BSL-3 MIC, strain MO #3
[31] = read-out: F. tularensis BSL-3 MIC, strain OR-96
[32] = read-out: F. tularensis BSL-3 MIC, strain SCHU S4
[33] = read-out: F. tularensis BSL-3 MIC, strain WY-96
[34] = read-out: MAX, highest MIC over the Francisella tularensis strains
[35] = read-out: MIN, lowest MIC over the Francisella tularensis strains
[36] = Trichophyton rubrum Castellani Sabouraud ATCC: 28188, read-out: MIC
[37] = Bacillus thuringiensis Berliner ATCC: 10792
[38] = Bacillus thuringiensis Berliner ATCC: 10792, read-out: MIC
[39] = Bacillus subtilis (Ehrenberg 1835) Cohn 1872 NRRL: B-571, read-out: MIC
[40] = strain B-571 (Table 4), read-out: Bacillus subtilis MIC
[41] = strain B-1985, read-out: Bacillus subtilis MIC
[42] = strain B-3665, read-out: Bacillus subtilis MIC
[43] = strain B-14322, read-out: Bacillus subtilis MIC
[44] = strain B-41090, read-out: Bacillus subtilis MIC
[45] = strain BD-594, read-out: Bacillus subtilis MIC
[46] = Candida glabrata #584 (Table 2), minimum fungicidal concentration

Nc1ccccc1Sc1c[nH]c2ccc(Br)cc12 [Compound 174M, 2-((5-bromo-1H-indol-3-yl)thio)aniline]
cell membrane damage of HepG2 cells [1]: no cell membrane damage | MFC ([2]; C. glabrata strain #325): > 50 µg/mL | MIC ([2]; C. glabrata strain #325): 25 µg/mL (≈ 78.3 µM) | MIC [2, 18]: 12.5 µg/mL (≈ 39.2 µM) | MIC [2, 19]: 12.5 µg/mL (≈ 39.2 µM) | MFC [3, 20]: 25 µg/mL (≈ 78.3 µM) | MIC [3, 21]: 12.5 µg/mL (≈ 39.2 µM) | MFC [3, 22]: 25 µg/mL (≈ 78.3 µM) | MIC [3, 23]: 3.13 µg/mL (≈ 9.8 µM) | MIC [4]: 2.5 µg/mL (≈ 7.83 µM) | EC50 at 48 h [5]: 85 µg/mL (≈ 266 µM) | EC50 [6]: 26.5 µg/mL (≈ 83 µM) | MIC [7]: > 50 µg/mL | MIC ([8]; strain #167): 1.56 µg/mL (≈ 4.89 µM) | MIC50 [9]: 4 µg/mL (≈ 12.5 µM) | MIC [9, 24]: > 8 µg/mL | MIC [9, 25]: 4 µg/mL (≈ 12.5 µM) | MIC [9, 26]: 2 µg/mL (≈ 6.27 µM) | MIC [9, 27]: 2 µg/mL (≈ 6.27 µM) | MIC [9, 28]: 2 µg/mL (≈ 6.27 µM) | MIC [9, 29]: 1.67 µg/mL (≈ 5.23 µM) | MIC [9, 30]: 4 µg/mL (≈ 12.5 µM) | MIC [9, 31]: 4 µg/mL (≈ 12.5 µM) | MIC [9, 32]: 8 µg/mL (≈ 25.1 µM) | MIC [9, 33]: 4 µg/mL (≈ 12.5 µM) | MIC [9, 34]: > 8 µg/mL | MIC [9, 35]: 1.67 µg/mL (≈ 5.23 µM) | MIC [10, 36]: 0.99 µg/mL (≈ 3.1 µM) | MIC ([10]; Trichophyton rubrum, read-out: Pathogens MIC Trichophyton rubrum (TR)): 0.9 µg/mL (≈ 2.82 µM) | MIC [11]: 16 µg/mL (≈ 50.1 µM) | MBC [12]: > 150 µg/mL | MIC [12]: 150 µg/mL (≈ 470 µM) | MBC [13, 37]: 5 µg/mL (≈ 15.7 µM) | MIC ([13]; ATCC10792, […]): 0.625 µg/mL (≈ 1.96 µM) | MIC [13, 38]: 1.25 µg/mL (≈ 3.92 µM) | MIC ([13]; strain B-1596): 1.25 µg/mL (≈ 3.92 µM) | MIC [14]: 2 µg/mL (≈ 6.27 µM) | MBC [15]: 10 µg/mL (≈ 31.3 µM) | MIC [15, 39]: 0.63 µg/mL (≈ 1.97 µM) | MIC [15, 40]: 0.625 µg/mL (≈ 1.96 µM) | MIC [15, 41]: 5 µg/mL (≈ 15.7 µM) | MIC [15, 42]: 10 µg/mL (≈ 31.3 µM) | MIC [15, 43]: 2.5 µg/mL (≈ 7.83 µM) | MIC [15, 44]: 5 µg/mL (≈ 15.7 µM) | MIC ([15]; strain B-41581, read-out: Bacillus subtilis MIC): 5 µg/mL (≈ 15.7 µM) | MIC [15, 45]: 5 µg/mL (≈ 15.7 µM) | synergistic effect with 2-ketobutyrate [16]: synergistic effect | MIC ([16]; with 200 μg/mL 2-ketobutyrate): 0.781 µg/mL | MIC ([16]; with 800 μg/mL 2-ketobutyrate): less than 0.39 μg/mL | MIC ([16]; without ketobutyrate): 3.124 µg/mL

Brc1cccc(Sc2c[nH]c3ccc(Br)cc23)c1 [Compound 174N, 5-bromo-3-((3-bromophenyl)thio)-1H-indole]
MIC ([2]; C. glabrata strain #325): > 50 µg/mL | MFC [2, 18]: 50 µg/mL (≈ 131 µM) | MFC [2, 46]: 50 µg/mL (≈ 131 µM) | MFC [3, 20]: > 50 µg/mL | MIC [3, 21]: 12.5 µg/mL (≈ 32.6 µM) | MFC [3, 22]: 6.25 µg/mL (≈ 16.3 µM) | MIC [3, 23]: 3.13 µg/mL (≈ 8.17 µM) | MIC [4]: 1.25 µg/mL (≈ 3.26 µM) | EC50 [6]: 29.5 µg/mL (≈ 77 µM) | MIC ([8]; strain #167): 1.56 µg/mL (≈ 4.07 µM) | MIC50 [9]: 4 µg/mL (≈ 10.4 µM) | MIC [9, 24]: 8 µg/mL (≈ 20.9 µM) | MIC [9, 25]: 4 µg/mL (≈ 10.4 µM) | MIC [9, 26]: 6.67 µg/mL (≈ 17.4 µM) | MIC [9, 27]: 6.67 µg/mL (≈ 17.4 µM) | MIC [9, 28]: 3.33 µg/mL (≈ 8.69 µM) | MIC [9, 29]: 3.67 µg/mL (≈ 9.58 µM) | MIC [9, 30]: 4 µg/mL (≈ 10.4 µM) | MIC [9, 31]: 4 µg/mL (≈ 10.4 µM) | MIC [9, 32]: > 8 µg/mL | MIC [9, 33]: 4 µg/mL (≈ 10.4 µM) | MIC [9, 34]: > 8 µg/mL | MIC [9, 35]: 3.33 µg/mL (≈ 8.69 µM) | MIC [10, 36]: < 0.57 µg/mL | MBC [12]: > 150 µg/mL | MIC [12]: 50 µg/mL (≈ 131 µM) | MBC [13, 37]: 10 µg/mL (≈ 26.1 µM) | MIC ([13]; ATCC10792, […]): 1.25 µg/mL (≈ 3.26 µM) | MIC [13, 38]: 1.25 µg/mL (≈ 3.26 µM) | MIC ([13]; strain B-1596): 2.5 µg/mL (≈ 6.53 µM) | MBC [15]: 10 µg/mL (≈ 26.1 µM) | MIC [15, 39]: 1.25 µg/mL (≈ 3.26 µM) | MIC [15, 40]: 1.25 µg/mL (≈ 3.26 µM) | MIC [15, 41]: 1.25 µg/mL (≈ 3.26 µM) | MIC [15, 42]: 1.25 µg/mL (≈ 3.26 µM) | MIC [15, 43]: 1.25 µg/mL (≈ 3.26 µM) | MIC [15, 44]: 2.5 µg/mL (≈ 6.53 µM) | MIC [15, 45]: 2.5 µg/mL (≈ 6.53 µM)

COc1ccc2[nH]cc(Sc3ccc(Br)cc3)c2c1 [Compound 172E, 3-((4-bromophenyl)thio)-5-methoxy-1H-indole]
MFC [2, 46]: > 50 µg/mL | MIC [2, 19]: 6.25 µg/mL (≈ 18.7 µM) | MIC [4]: 0.78 µg/mL (≈ 2.33 µM) | EC50 [6]: 23.3 µg/mL (≈ 69.7 µM) | MIC ([8]; strain #167): < 0.39 µg/mL | MIC ([8]; strain #203): 3.13 µg/mL (≈ 9.36 µM) | MIC ([8]; strain #205): 3.13 µg/mL (≈ 9.36 µM) | MIC50 [9]: 8 µg/mL (≈ 23.9 µM) | MIC [9, 24]: > 8 µg/mL | MIC [9, 25]: 8 µg/mL (≈ 23.9 µM) | MIC [9, 26]: > 8 µg/mL | MIC [9, 27]: 8 µg/mL (≈ 23.9 µM) | MIC [9, 28]: 5.33 µg/mL (≈ 15.9 µM) | MIC [9, 29]: 3.33 µg/mL (≈ 9.96 µM) | MIC [9, 30]: 8 µg/mL (≈ 23.9 µM) | MIC [9, 31]: 8 µg/mL (≈ 23.9 µM) | MIC [9, 32]: 4 µg/mL (≈ 12 µM) | MIC [9, 33]: > 8 µg/mL | MIC [9, 34]: > 8 µg/mL | MIC [9, 35]: 3.33 µg/mL (≈ 9.96 µM) | MIC [10, 36]: 2.08 µg/mL (≈ 6.22 µM) | MIC [12]: > 50 µg/mL | MBC [13, 37]: 12.5 µg/mL (≈ 37.4 µM) | MIC [13, 38]: 1.56 µg/mL (≈ 4.67 µM) | MBC [15]: 6.25 µg/mL (≈ 18.7 µM) | MIC [15, 39]: 1.56 µg/mL (≈ 4.67 µM)

CN[C@H](CC(C)C)C(=O)N[C@H]1C(=O)N[C@@H](CC(N)=O)C(=O)N[C@H]2C(=O)N[C@H]3C(=O)N[C@H](C(=O)N[C@H](C(=O)O)c4cc(O)cc(O)c4-c4cc3ccc4O)[C@H](O)c3ccc(c(Cl)c3)Oc3cc2cc(c3O[C@@H]2O[C@H](CO)[C@@H](O)[C@H](O)[C@H]2O[C@H]2C[C@](C)(N)[C@H](O)[C@H](C)O2)Oc2ccc(cc2Cl)[C@H]1O [vancomycin, reference compound]
cell wall synthesis inhibition (glucosamine incorporation) [17]: increasingly inhibits glucosamine from incorporating into a cell wall
